Experiment [1] has as its target T1, IRAP (Homo sapiens, UniProt Q9UIQ6).
T1 construct: The screen was performed with the soluble truncated IRAP enzyme; made in house
Nature of the experiment: Orthogonal absorbance IRAP assay (L-Leucine para-nitroanilide cleavage). The class given is biochemical. The settings on record: for IC50: read-out: Absorbance pIC50 (converted). The source says:
The primary biochemical assay was developed to measure the enzymatic activity of IRAP. […] To establish an orthogonal assay, an alternative L-Leucine para-nitroanilide substrate was used, which IRAP turns over to L-Leucine and para-nitroaniline and is measurable by absorbance at 405 nm (Supplementary Figure S2B).
To ensure biochemically sound, optimal, robust, and affordable assay conditions for large-scale screening, several factors need to be considered. These include the final concentration of substrates, based on the determined substrate Km value; the assay kinetics and reaction linearity; achieving a minimal, rate limiting protein concentration; identifying optimal buffer additives and concentrations; the choice of assay plate type; the final assay volume per well; the stability of reagents; the magnitude and variance of the signal; and the potency and rank order of reference compounds. For both primary fluorescence and orthogonal absorbance assays, non-binding 1536-well assay plates were used, and 0.05% BSA was included in the assay buffer to minimize the issues associated with protein sticking to plastics. The substrate Km values were determined in two separate experiments using two different batches of IRAP protein. For this, the IRAP progress curve was monitored every 5 min for 2 h using an Envision multimode plate reader (PerkinElmer, Waltham, MA, USA). […] To evaluate if using substrate concentrations close to the determined Km values results in sufficient dynamic range within the linear range of the enzymatic reaction, Z′ and S/B were calculated for multiple time points up to 2.5 h in the presence and absence of reference compounds in both assays. The primary fluorescence assay reached an optimal Z′-value after 1 h when using 37.5 μM substrate (Supplementary Figure S5). For the absorbance, 2 h was required for the enzyme reaction time; however, using ~0.4 mM substrate was associated with increased assay variation and a poor Z′ (Supplementary Figure S6).
The orthogonal assay was performed in a black non-binding 1536-well plate (Corning 3728) and sealed with universal lids (Corning 3098). First, 20 nL of test compounds (4 mM) or 100% DMSO was dispensed into the 1536-well assay plates using an Echo acoustic liquid handler (Beckman Coulter). Then, 4 μL of protein working solution (5 × 10^−4 mg/mL) was dispensed to the negative control (min effect) and compound wells (final well concentration 2.5 × 10^−4 mg/mL) using the Certus Flex liquid dispenser (Fritz Gyger AG) and 4 μL assay buffer to the positive control wells (max effect) using the FLEXdrop (PerkinElmer). Next, 4 μL of 2 mM substrate working solution was dispensed into all wells using the FLEXdrop (final well concentration 1 mM). The assay plates were then centrifuged at 187.5× g for 30 s, incubated in the dark at RT for 120 min, and finally read on an Envision plate reader (PerkinElmer) (absorbance at 405 nm, 10 flashes per second). During the dose–response curve analysis in the orthogonal assay, 80 nL of compound (range 2.00 × 10^−3 M–2.74 × 10^−6 M) or 100% DMSO was dispensed into the assay plates using an Echo acoustic liquid handler (Beckman Coulter) with final well concentration range of 20 μM–27.4 nM compound and 1% DMSO.

Experiment [2] concerns the target T1, IRAP. Nature of the experiment: Primary fluorescence IRAP assay (L-Leucine-7-amido-4-methylcoumarin cleavage). Type of experiment: biochemical. The settings on record: for LipE: calculated from (pIC50Fluorescence − LogD); for LogEC50 (best-fit): log of concentration in M; for EC50: read-out: EC50 (best-fit). The source says:
The primary biochemical assay was developed to measure the enzymatic activity of IRAP.
To ensure biochemically sound, optimal, robust, and affordable assay conditions for large-scale screening, several factors need to be considered. […] For both primary fluorescence and orthogonal absorbance assays, non-binding 1536-well assay plates were used, and 0.05% BSA was included in the assay buffer to minimize the issues associated with protein sticking to plastics. The substrate Km values were determined in two separate experiments using two different batches of IRAP protein. For this, the IRAP progress curve was monitored every 5 min for 2 h using an Envision multimode plate reader (PerkinElmer, Waltham, MA, USA).
First, 10 nL of test compounds (4 mM) or 100% DMSO was dispensed into the 1536-well assay plates using an Echo acoustic liquid handler (Beckman Coulter, Brea, CA, USA). Then, 2 μL of protein working solution (5 × 10^−4 mg/mL) was dispensed to the negative control (min effect) and compound wells (final well concentration 2.5 × 10^−4 mg/mL) using a Certus Flex liquid dispenser (Fritz Gyger AG, Thun, Switzerland) and 2 μL assay buffer to the positive control wells (max effect) using a FLEXdrop (PerkinElmer, Waltham, MA, USA).
Figure S9. Reference compounds in Fluorescence IRAP assay with different end volumes in 1536-well format.
mg/ml) and 2 or 4 µL L -Leucine-7-amido-4-methylcoumarin (f.a.c.
Plates were measured on the Envision every 10 minutes for 140 minutes (data
shown up to 2 hours). %Effect was calculated using no protein as MAX effect (assay buffer was added instead of IRAP).

On the set-up of experiment [3]: method as in ELF screening history. As to conditions: ref ELF screening history, cited from earlier work; for Enzyme Active: number of ELF enzyme screens in which the compound was active; for Targets active: number of ELF screens in which the compound was active; for Enzyme Active %: share of ELF enzyme targets screened; for Targets Active %: share of all ELF targets screened.

The target in experiment [4] is T1, IRAP. Nature of the experiment: Thermal shift (TSA) IRAP assay. The class given is binding. The text has this:
The Thermal shift assay (TSA) is a biophysical technique measuring protein thermal stability. The assay relies on a fluorescent dye that is quenched in an aqueous environment but fluoresces when de-solvated in non-polar environments, such as the hydrophobic pockets of proteins. The target protein is mixed with the dye and heated gradually until it becomes completely denatured; as it unfolds or melts, the dye binds to newly exposed hydrophobic regions of the protein, resulting in a significant increase in fluorescence emission detected by a PCR system. The melting temperature (Tm) is calculated from the protein melt curve, and changes in Tm (known as ΔTm) are correlated with changes in protein stability and ligand binding. […] For the TSA assay, vehicle (DMSO) or compound was dispensed into MicroAmp Endura optical qPCR plates at the desired volume using an Echo acoustic liquid handler. […] The plates were then centrifuged for 10 s at 1000 rpm and sealed with Clear PCR-compatible plate seals.

The target of experiment [5] is T1, IRAP. Nature of the experiment: Deselection fluorescence IRAP assay with 10 µM zinc. Type of experiment: biochemical. The settings on record: 10 µM ZnSO4 in assay buffer; for IC50: read-out: Fluorescence + Zn pIC50 (converted). Here is the method:
To prepare the assay buffer (50 mM Tris-HCl pH 7.4, 150 mM NaCl, 0.1 mM PMSF, 0.05% BSA) of the primary and orthogonal assays, 1 M Tris-HCl was prepared by dissolving 60.57 g Trizma-base (Mw 121.14 g/mol) (Sigma 93362-250G) in 500 mL MQ water, and the pH was adjusted to 7.4 using 4 M HCl. The solution was filtered with a 0.45 μm filter and stored at room temperature (RT). Then, 2 M NaCl stock was prepared by dissolving 29.22 g NaCl (Mw 58.44 g/mol) (Sigma S7653-250G) in 250 mL MQ water. The solution was filtered with a 0.45 μm filter and stored at RT. Next, 100 mM Phenylmethanesulfonylfluoride (PMSF) stock was prepared by dissolving 1 g PMSF (Mw 174.19 g/mol) (Sigma 78830-1G) in 57.4 mL isopropanol (Sigma I9516-500ML) and stored at 4 °C. A 10% Bovine Serum Albumin (BSA) stock solution was prepared by dissolving 2 g BSA (Mw 66.5 kDa) (Sigma A7030-50G), which was dissolved in 20 mL MQ water. The solution was filtered with a 0.45 μm filter, aliquoted, and stored at −20 °C. For the deselection assay buffer (50 mM Tris-HCl pH 7.4, 150 mM NaCl, 0.1 mM PMSF, 0.05% BSA, 10 μM ZnSO4), 1 mM ZnSO4 solution was prepared by dissolving 28.8 mg ZnSO4 (Mw 287.56 g/mol) (Sigma Z0251-100G) in 100 mL MQ water. The solution was filtered with a 0.45 μm filter and stored at RT. For the TSA assay buffer (50 mM Tris HCL, 150 mM NaCl, pH 7.4), stocks of 1 M Tris HCL and 2 M NaCl were prepared as described above.

[6] abbreviates: 1 mM L-Leucine p-Nitroanilide, 120 min RT.
Setting [7] is: screening hits at 30 µM, 1% DMSO.
Where [8] appears, read: 1536-well format, steady-state velocity, read-out: Km (substrate).
[9] abbreviates: 37.5 µM L-Leucine-7-amido-4-methylcoumarin, 60 min RT, dose-response 20 µM-27.4 nM, read-out: Fluorescence pIC50 (converted).

Like-named read-outs stand apart in the source and are kept apart here.

T1 sequence (Q9UIQ6 155-1025 limits assumed): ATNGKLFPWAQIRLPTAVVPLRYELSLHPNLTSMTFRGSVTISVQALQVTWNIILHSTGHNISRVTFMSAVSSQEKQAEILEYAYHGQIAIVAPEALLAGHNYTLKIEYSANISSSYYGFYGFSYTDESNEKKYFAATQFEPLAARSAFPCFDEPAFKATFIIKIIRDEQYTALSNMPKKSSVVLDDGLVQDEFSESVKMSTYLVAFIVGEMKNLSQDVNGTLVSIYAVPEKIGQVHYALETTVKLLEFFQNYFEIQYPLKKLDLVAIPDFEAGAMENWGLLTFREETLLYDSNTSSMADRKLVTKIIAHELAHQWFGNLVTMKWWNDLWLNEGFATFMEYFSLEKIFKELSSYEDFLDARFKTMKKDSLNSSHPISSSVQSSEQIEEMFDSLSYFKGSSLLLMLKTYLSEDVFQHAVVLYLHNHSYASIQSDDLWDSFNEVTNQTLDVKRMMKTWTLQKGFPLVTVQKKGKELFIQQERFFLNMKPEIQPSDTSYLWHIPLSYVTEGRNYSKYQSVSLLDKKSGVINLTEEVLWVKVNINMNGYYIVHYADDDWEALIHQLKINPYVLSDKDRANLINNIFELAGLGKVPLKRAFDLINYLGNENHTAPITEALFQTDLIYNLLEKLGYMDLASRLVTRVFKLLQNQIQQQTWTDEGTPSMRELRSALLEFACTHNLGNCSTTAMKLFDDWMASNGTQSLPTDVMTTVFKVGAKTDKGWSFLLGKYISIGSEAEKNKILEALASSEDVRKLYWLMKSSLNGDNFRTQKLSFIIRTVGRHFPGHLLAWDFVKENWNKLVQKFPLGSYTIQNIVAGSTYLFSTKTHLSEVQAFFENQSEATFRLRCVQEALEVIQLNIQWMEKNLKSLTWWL

For `Cc1ccc(-c2nc(C3CCCN3C(=O)NCc3ccccc3)n3ccccc23)cc1` (racemic) [QHL36], the “Absorbance pIC50” value at IRAP [1] (setting [6]) came to 5.80. For the same compound, the “Fluorescence pIC50” value on IRAP [2] (37.5 µM L-Leucine-7-amido-4-methylcoumarin, 60 min RT, dose-response 20 µM-27.4 nM) was determined as 5.40. Moreover, the IC50 at IRAP [2] (37.5 µM L-Leucine-7-amido-4-methylcoumarin, 60 min RT, dose-response 20 µM-27.4 nM, read-out: Fluorescence IC50) stood at 3980 nM. At IRAP [2], the LipE is given as 0.29. Also, in experiment [3], the “Enzyme Active” value was 4, the Targets active is recorded as 6, the “Enzyme Active %” value was 7.1% and the “Targets Active %” value is listed as 5.8%. Besides, the “TSA (∆°C), thermal shift of IRAP” value at IRAP [4] (setting [7]) was found to be 0.3 °C. Moreover, the “Fluorescence + Zn pIC50” value at IRAP [5] amounted to 5.31.
Consider `O=S(=O)(Nc1cccc(-c2nnn[nH]2)c1)c1cc(Cl)c(Cl)cc1Cl` [I, reference compound], for which the “LogEC50 (best-fit)” value was -4.565 at IRAP [2] (4 µl end volume, 30 min); -4.541 at IRAP [2] (4 µl end volume, 60 min); -4.517 at IRAP [2] (4 µl end volume, 90 min); -4.5 at IRAP [2] (4 µl end volume, 120 min); -4.385 at IRAP [2] (8 µl end volume, 30 min); -4.449 at IRAP [2] (8 µl end volume, 60 min). For the same compound, the “LogEC50 (best-fit)” value on IRAP [2] (8 µl end volume, 90 min) is on record as -4.469; on IRAP [2] (8 µl end volume, 120 min), -4.427. Also, the EC50 at IRAP [2] (4 µl end volume, 30 min) turned out to be 27.2 µM; at IRAP [2] (4 µl end volume, 60 min), 28.8 µM; on IRAP [2] (4 µl end volume, 90 min), 30.4 µM; at IRAP [2] (4 µl end volume, 120 min), 31.6 µM; at IRAP [2] (8 µl end volume, 30 min) it was 41.2 µM; on IRAP [2] (8 µl end volume, 60 min), 35.6 µM. The half-maximal effective concentration (EC50) on IRAP [2] (8 µl end volume, 90 min) was found to be 34 µM; on IRAP [2] (8 µl end volume, 120 min), 37.4 µM. On IRAP [4] (10-point half-log concentration series), the “stabilization of the thermal melting temperature of IRAP” value was “dose-dependent and saturable”. Moreover, the “IRAP Tm” value at IRAP [4] (compound at 400 µM) worked out at 69.05 ± 0.17 °C.
Consider `CC(C)C[C@H](N)C(=O)Nc1ccc([N+](=O)[O-])cc1` [L-Leucine p-Nitroanilide, reference compound], for which, on IRAP [1] (setting [8]), the Km came out at 380 µM.
For the compound `Cc1cc(=O)oc2cc(NC(=O)[C@@H](N)CC(C)C)ccc12` [L-Leucine-7-amido-4-methylcoumarin, reference compound], the Michaelis constant (Km) on IRAP [2] (setting [8]) was determined as 36.6 µM.
With `O=C(Cc1ccccc1S(=O)(=O)N1CCc2ccccc2C1)NO` [QHL1, 2-(2-((3,4-dihydroisoquinolin-2(1H)-yl)sulfonyl)phenyl)-N-hydroxyacetamide], the IC50 on IRAP [1] (setting [6]) is 871 nM. In addition, the IC50 on IRAP [2] (setting [9]) was 316 nM. Besides, the LipE at IRAP [2] is 4.85. Besides, in experiment [3], the “Enzyme Active” value was 2, the Targets active is 7, the “Enzyme Active %” value is 2.1% and the “Targets Active %” value is reported as 4.7%. Besides, the ΔTm at 30 µM on IRAP [4] (setting [7]) turned out to be 6.77 °C. Moreover, the IC50 at IRAP [5] was 316 nM.
For `O=C(NO)C(CS(=O)(=O)N1CCC(c2ccc(F)cc2Cl)C1)C1CCOCC1` (stereo not drawn) [QHL2], the IC50 on IRAP [1] (setting [6]) is 794 nM. Besides, the IC50 on IRAP [2] (setting [9]) was 355 nM. The LipE at IRAP [2] was 4.89. Moreover, in experiment [3], the “Enzyme Active” value is given as 4, the Targets active is reported as 5, the “Enzyme Active %” value is listed as 4.3% and the “Targets Active %” value is 3.4%. Also, the ΔTm at 30 µM on IRAP [4] (setting [7]) was 3.7 °C. In addition, the IC50 on IRAP [5] was 339 nM.
Turning to `CC(C)C(CS(=O)(=O)N(Cc1cc2ccccc2o1)C(C)C)C(=O)NO` (stereo not drawn) [QHL3], the IC50 on IRAP [1] (setting [6]) was 708 nM. Further, the IC50 at IRAP [2] (setting [9]) is 380 nM. The LipE on IRAP [2] was 4.08. In experiment [3], the “Enzyme Active” value is reported as 3, the Targets active is on record as 4, the “Enzyme Active %” value is 3.2% and the “Targets Active %” value is 2.7%. Moreover, on IRAP [4] (setting [7]), the thermal shift (ΔTm) at 30 µM is 5.22 °C. Further, the IC50 on IRAP [5] is 389 nM.

For orientation: EC50 means the concentration giving half of the maximal effect. The term Km denotes the concentration of substrate that gives half-maximal velocity. Broadly, the ΔTm is the shift of the melting midpoint relative to a reference.

The values are drawn from article PMC11012289, “The Discovery of New Inhibitors of Insulin-Regulated Aminopeptidase by a High-Throughput Screening of 400,000 Drug-like Compounds” (International Journal of Molecular Sciences, 2024).
